Biological target: T1, human GPR120 (Homo sapiens, UniProt Q5NUL3)
T1 sequence (Q5NUL3 1-361): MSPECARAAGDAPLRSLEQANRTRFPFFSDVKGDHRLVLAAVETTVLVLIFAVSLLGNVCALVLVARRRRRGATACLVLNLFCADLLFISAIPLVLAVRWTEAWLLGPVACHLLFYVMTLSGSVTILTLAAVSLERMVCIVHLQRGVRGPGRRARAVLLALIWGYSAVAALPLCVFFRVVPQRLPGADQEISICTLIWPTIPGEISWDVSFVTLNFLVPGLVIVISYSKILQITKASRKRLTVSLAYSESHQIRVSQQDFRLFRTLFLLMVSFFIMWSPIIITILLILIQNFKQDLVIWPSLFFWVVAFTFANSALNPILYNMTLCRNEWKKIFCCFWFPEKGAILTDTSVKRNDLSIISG
Assay: Ca2+ influx activity of CHO cells expressing human GPR120
Assay type: cell-based

| EC50 | Compound |
| --- | --- |
| 182 ± 13.2 nM | Cc1ccc(-c2ccc(F)cc2COc2ccc(CC3SC(=O)NC3=O)cc2)cc1 (stereo not shown) [Compound 1g, 5-(4-((4-Fluoro-4′-methyl-[1,1′-biphenyl]-2-yl)methoxy)benzyl)thiazolidine-2,4-dione] |
| 134 ± 11.8 nM | Cc1ccc(-c2ccc(F)cc2COc2ccc(CC3SC(=O)NC3=O)c(C)c2)cc1 (stereo not shown) [Compound 2g, 5-(4-((4-Fluoro-4′-methyl-[1,1′-biphenyl]-2-yl)methoxy)-2-methylbenzyl)thiazolidine-2,4-dione] |
| 122 ± 13.1 nM | COc1cc(OCc2cc(F)ccc2-c2ccc(C)cc2)ccc1CC1SC(=O)NC1=O (stereo not shown) [Compound 3g, 5-(4-((4-Fluoro-4′-methyl-[1,1′-biphenyl]-2-yl)methoxy)-2-methoxybenzyl)thiazolidine-2,4-dione] |
| 461 ± 36.1 nM | Cc1ccc(-c2ccc(F)cc2COc2ccc(CC3SC(=O)NC3=O)cc2C)cc1 (stereo not shown) [Compound 6g, 5-(4-((4-Fluoro-4′-methyl-[1,1′-biphenyl]-2-yl)methoxy)-3-methylbenzyl)thiazolidine-2,4-dione] |
| 276 ± 20.5 nM | Cc1ccc(-c2ccc(F)cc2COc2ccc(CC3SC(=O)NC3=O)cc2F)cc1 (stereo not shown) [Compound 7g, 5-(3-Fluoro-4-((4-fluoro-4′-methyl-[1,1′-biphenyl]-2-yl)methoxy)benzyl)thiazolidine-2,4-dione] |
| 142 ± 12.5 nM | Cc1ccc(-c2ccc(F)cc2COc2ccc(CC3SC(=O)NC3=O)c(F)c2F)cc1 (stereo not shown) [Compound 8g, 5-(2,3-Difluoro-4-((4-fluoro-4′-methyl-[1,1′-biphenyl]-2-yl)methoxy)benzyl)thiazolidine-2,4-dione] |
| 137 ± 16.3 nM | Cc1ccc(-c2ccc(F)cc2COc2cc(F)c(CC3SC(=O)NC3=O)c(F)c2)cc1 (stereo not shown) [Compound 9g, 5-(2,6-Difluoro-4-((4-fluoro-4′-methyl-[1,1′-biphenyl]-2-yl)methoxy)benzyl)thiazolidine-2,4-dione] |

From paper PMC8981563 (RSC Advances, 2022)
